{
  "source": "patent US9579406B2",
  "about": "“Phospholipid ether analogs as agents for detecting and locating cancer, and methods thereof” (Cellectar, Inc., priority 2004, dated 2017)",
  "key": {"[1]": {"test": "Human safety study of unlabeled NM404 in normal volunteers", "assay_type": "in vivo", "protocol": "Formal toxicology studies of NM404 in male rats and rabbits were performed at the Toxicology Research Center of the State University of New York at Buffalo under the direction of Dr. Paul Kostyniak. Drug vehicle and drug product were provided to Dr. Kostyniak by Dr. Raymond Counsell of the University of Michigan for testing as described in the appended synopses of Study 27 and Study 28. […] Human safety studies of unlabeled NM404 were initiated in normal male humans at a mass of 10 times the anticipated imaging dose and about 21 times the anticipated therapy dose. […] This toxicology study was performed under GLP conditions.\nSafety assessment in normal male subjects healthy normal female subjects were carried out and it was determined that a dose level of 3 μg/kg of C-NM-404 is safe to administer to male subjects. […] A dose level of 3 μg/kg of C-NM-404 is safe to administer to female subjects."}, "[2]": {"test_system": "MAT LyLu cells", "test": "Gamma camera scintigraphy in rat Dunning R3327 (MAT LyLu) prostate cancer model", "excerpt": "The MatLyLu (Dunning R3327 rat) model, a rat prostate tumor line, was used specifically to screen 9 specific analogs prior to entering them into control for dosimetry and tumor-bearing animals for determining tumor/background ratios.\nIn order to expedite the screening process and minimize the number of tumor bearing animals utilized in multiple time point tissue distribution studies, new radioiodinated homologs were imaged by gamma camera scintigraphy in the rat Dunning R3337 (MAT LyLu strain) prostate cancer model. […] Gamma camera images were obtained at multiple time points including 24 and 48 hours post injection.\nThe new PLE analogs were synthesized and radiolabeled with ^125I for initial image analysis in Copenhagen rats bearing Dunning R3327 prostate tumors."}, "[3]": {"test": "Blood plasma kinetics in rats", "assay_type": "in vivo", "conditions": "rat"}, "[4]": {"test_system": "Glioma L9 and CNS-1", "test": "Tumor models examined with NM404 (Table 2)", "assay_type": "in vivo, Rat xenograft", "source_text": "(§1) NM404 has now been evaluated in 27 animal tumor models, including several lung, and it is clear that once the agent enters tumor cells, it reaches a metabolic dead end and becomes trapped. […] NM404 is also retained in spontaneous murine lung tumors (FIG. 13). Using ^125I-labeled NM404, the inventors have been able to image mammary and prostate tumors in mice in excess of 60 days. […] Imaging and tissue distribution studies performed in mouse models aimed at determining the uptake characteristics in a wide variety of tumor models are summarized in Table 2.\n(§2) Although tumor retention can be explained by a lack of metabolic phospholipase enzymes in the tumor cell membranes, the exact mechanism of tumor cell uptake is unknown. […] The inventors are currently evaluating the selectivity of NM404 in a unique mouse tumor model developed at Wisconsin, wherein both preneoplastic hyperplasias and malignant adenocarcinomas form spontaneously in the mammary gland. […] If this initial observation is validated, then via genomic and or proteomic analysis the inventors may be able to identify a key genetic difference between malignant tumors and their non malignant predecessor cells. This could identify a completely new molecular therapeutic target that may be universal for all types of cancer."}, "[5]": {"test_system": "TRAMP prostate tumors", "test": "Bioscan imaging of TRAMP mice prostate tumors", "assay_type": "in vivo", "conditions": "125I label 15 μCi, 1-8 days", "protocol": "Following in vivo imaging of anesthetized mice, the prostate tumors were removed immediately, and imaged ex vivo on the same scanner (equipped with high resolution 1 mm collimator and 2-D acquisition and analysis software) in order to avoid tissue attenuation associated with the low energy of iodine-125 (FIG. 21). […] In an attempt to simulate bone metastases another experiment was performed wherein human PC-3 tumor cells were implanted into the tibia of immune compromised NUDE mice (n=6) according to a recent reports. Following tumor cell inoculation, mice were scanned serially by high-resolution microCT in order to monitor bone tumor development (FIG. 22). Once bone deterioration was detected, iodine-125 labeled NM404 was administered intravenously via tail vein. Mice were scanned for radioactivity and by microCT 4 days post NM404 administration. Radioactivity scans were fused with microCT scans (FIG. 23) to corroborate NM404 radioactivity and tumor location."}, "[6]": {"test_system": "Mammary Adenocarcinoma", "test": "Tumor models examined with NM404 (Table 2)", "assay_type": "in vivo, Apc/^min+ mouse", "source_text": "as §1, §2"}, "[7]": {"test_system": "Mammary SCC", "test": "Tumor models examined with NM404 (Table 2)", "assay_type": "in vivo, Apc/^min+ mouse", "conditions": "Squamous cell carcinoma", "source_text": "as §1, §2"}, "[8]": {"test_system": "LuCaP prostate", "test": "Tumor models examined with NM404 (Table 2)", "assay_type": "in vivo, Mouse xenograft", "conditions": "Adenocarcinoma", "source_text": "as §1, §2"}, "[9]": {"test_system": "Melanoma B16", "test": "Tumor models examined with NM404 (Table 2)", "assay_type": "in vivo, Mouse xenograft", "conditions": "Adenocarcinoma", "source_text": "as §1, §2"}, "[10]": {"test_system": "Liver CT-26", "test": "Tumor models examined with NM404 (Table 2)", "assay_type": "in vivo, Mouse xenograft", "conditions": "Colorectal adenocarcinoma", "source_text": "as §1, §2"}, "[11]": {"assay_type": "in vivo, human"}, "[12]": {"test_system": "Cervical", "test": "Tumor models examined with NM404 (Table 2)", "assay_type": "in vivo, Transgenic mouse", "conditions": "Adenocarcinoma", "source_text": "as §1, §2"}, "[13]": {"test_system": "Pancreas c-myc/k-ras", "test": "Tumor models examined with NM404 (Table 2)", "assay_type": "in vivo, Transgenic mouse", "conditions": "Ductal/acinar", "source_text": "as §1, §2"}, "[14]": {"test_system": "TRAMP prostate", "test": "Tumor models examined with NM404 (Table 2)", "assay_type": "in vivo, Transgenic mouse", "conditions": "Adenocarcinoma", "source_text": "as §1, §2"}, "[15]": {"test_system": "Min Mouse Intestinal", "test": "Tumor models examined with NM404 (Table 2)", "assay_type": "in vivo, Transgenic mouse", "conditions": "Adenocarcinoma", "source_text": "as §1, §2"}, "[16]": {"test_system": "Retinoblastoma", "test": "Tumor models examined with NM404 (Table 2)", "assay_type": "in vivo, Transgenic mouse", "conditions": "Blastoma", "source_text": "as §1, §2"}, "[17]": {"test_system": "TGFα Hepatoma", "test": "Tumor models examined with NM404 (Table 2)", "assay_type": "in vivo, Transgenic mouse", "source_text": "as §1, §2"}, "[18]": {"test_system": "A549 lung, PC-3 prostate, c-myc pancreatic tumors", "test": "microPET imaging in lung, prostate and pancreatic mouse tumor models", "assay_type": "in vivo", "source_text": "Human pharmacokinetic studies have confirmed this finding as only 4% of the agent is cleared renally within 4 days of iv injection (majority is excreted via GI route)."}, "[19]": {"test_system": "non-small cell lung cancer", "test": "Planar gamma-camera scintigraphy with 131I-NM-404 in NSCLC patients", "conditions": "time points examined", "description": "The preparation dispensed by the Nuclear Pharmacy will be certified as sterile and pyrogen-free. The subject will be monitored for adverse reactions during and after the infusion. Vital signs will be checked immediately after the infusion, and at 60 minute intervals up to four hours post-injection. They will be observed for adverse events throughout this time. […] Vital signs will be monitored at these times. Any adverse reactions experienced by the subjects will be recorded."}, "[20]": {"test_system": "benign intestinal adenomas, preneoplastic hyperplasias", "test": "Selectivity for benign and preneoplastic lesions", "assay_type": "in vivo, mouse", "source_text": "as §2"}, "[21]": {"test_system": "PC3 human prostate cancer", "test": "Radiotherapy study in PC-3 SCID mouse xenograft model", "assay_type": "in vivo", "conditions": "after treatment", "protocol": "PC-3 (human prostate cancer, from ATCC) are maintained in Ham's F-12K media supplemented with 10% fetal bovine serum. Tumor cell suspension (1×10^6 cells in phosphate-buffered saline) is injected s.c. into the right flank of male SCID mice (6-8 weeks, C.B-17/IcrHsd-Prkcd^scid, Harlan). Animals are given free access to food and water, tumor growth and animal weight are monitored. Upon reaching 4-5 mm in diameter, mice will be divided into groups of 6 for therapy study.\nSingle injection of SF404A at Day 0\nGroups: • (1) 5 study groups: 4 treatment+1 control • (2) N=6 per group • (3) 4 acute dose levels: 50, 150, 250 and 500 μCi per mouse • (4) Control group dosed with equivalent mass amount of NM404: 0 μCi per mouse (“cold” NM404)"}},
  "note": "“Also recorded” adds a separate entry of the source. Where two headings read alike, the source gives them in different places.",
  "data": [
    {"smiles": "C[N+](C)(C)CCOP(=O)([O-])OCCCCCCCCCCCCCCCCCCc1ccc(I)cc1", "note": "[NM-404, 18-(4-iodophenyl)-octadecylphosphocholine]", "values": [
      {"measurement": "dose level safe to administer", "setting": "[1]; female subjects", "value": 3, "unit": "µg/kg"},
      {"measurement": "dose level safe to administer", "setting": "[1]; male subjects", "value": 3, "unit": "µg/kg"},
      {"measurement": "toxicity", "setting": "[1]; normal male humans, 10 times the anticipated imaging dose", "value": "no toxicity attributable to the drug substance"},
      {"measurement": "liver activity and tumor retention in initial image screen", "setting": "[2]; 125I-labeled", "value": "much lower liver activity than its predecessor NM324 but also maintained prolonged tumor retention"},
      {"measurement": "tumor uptake and liver/abdominal radioactivity by gamma camera imaging", "setting": "[2]; tumor-bearing rats, 24 and 48 hours post injection", "value": "readily visualized"},
      {"measurement": "half-life", "setting": "[3]; read-out: distribution phase half life (converted)", "value": 4.86, "unit": "h"},
      {"measurement": "half-life", "setting": "[3]; read-out: elimination half life time in plasma (converted)", "value": "~209", "unit": "h"},
      {"measurement": "NM404 Tumor Localization", "setting": "[4]", "value": "Yes (Localization defined as >5% injected dose per gram tumor basis based on tissue distribution data)"},
      {"measurement": "uptake into prostate tumor and benign hyperplasia", "setting": "[5]", "value": "uptake of NM404 into prostate tumor but not benign hyperplasia; also recorded: intense uptake of radioactivity in the prostate tumor"},
      {"measurement": "NM404 Tumor Localization", "setting": "[6]", "value": "Yes (Localization defined as >5% injected dose per gram tumor basis based on tissue distribution data)"},
      {"measurement": "NM404 Tumor Localization", "setting": "[7]", "value": "Yes (Localization defined as >5% injected dose per gram tumor basis based on tissue distribution data)"},
      {"measurement": "NM404 Tumor Localization", "setting": "[8]", "value": "Yes (Localization defined as >5% injected dose per gram tumor basis based on tissue distribution data)"},
      {"measurement": "NM404 Tumor Localization", "setting": "[9]", "value": "Yes (Localization defined as >5% injected dose per gram tumor basis based on tissue distribution data)"},
      {"measurement": "NM404 Tumor Localization", "setting": "[10]", "value": "Yes (Localization defined as >5% injected dose per gram tumor basis based on tissue distribution data)"},
      {"measurement": "half-life", "setting": "[11]; human, plasma, intravenous, 0.3 μg/kg, average, read-out: plasma elimination half life time (converted)", "value": 113, "unit": "h"},
      {"measurement": "agent cleared renally", "setting": "[11]; within 4 days of iv injection", "value": 4, "unit": "%"},
      {"measurement": "NM404 Tumor Localization", "setting": "[12]", "value": "Yes (Localization defined as >5% injected dose per gram tumor basis based on tissue distribution data)"},
      {"measurement": "NM404 Tumor Localization", "setting": "[13]", "value": "Yes (Localization defined as >5% injected dose per gram tumor basis based on tissue distribution data)"},
      {"measurement": "NM404 Tumor Localization", "setting": "[14]", "value": "Yes (Localization defined as >5% injected dose per gram tumor basis based on tissue distribution data)"},
      {"measurement": "NM404 Tumor Localization", "setting": "[15]", "value": "Yes (Localization defined as >5% injected dose per gram tumor basis based on tissue distribution data)"},
      {"measurement": "NM404 Tumor Localization", "setting": "[16]", "value": "Yes (Localization defined as >5% injected dose per gram tumor basis based on tissue distribution data)"},
      {"measurement": "NM404 Tumor Localization", "setting": "[17]", "value": "Yes (Localization defined as >5% injected dose per gram tumor basis based on tissue distribution data)"},
      {"measurement": "time to tumor uptake", "setting": "[18]; after injection", "value": "≤ 6", "unit": "h"},
      {"measurement": "tumor avidity", "setting": "[18]; mouse, in vivo", "value": "significant tumor avidity regardless of location in the body"},
      {"measurement": "urinary bladder radioactivity", "setting": "[19]", "value": "lack of urinary bladder radioactivity"},
      {"measurement": "uptake and retention in preneoplastic lesions", "setting": "[20]; mammary gland model, preliminary", "value": "not taken up and retained in preneoplastic lesions"},
      {"measurement": "localization in benign intestinal adenomas", "setting": "[20]; mouse, in vivo", "value": "does not localize in benign intestinal adenomas (polyps)"}
    ]},
    {"smiles": "C[N+](C)(C)CCOP(=O)([O-])OCCCCCCCCCCCCCCCCCCc1ccc([125I])cc1", "note": "[Compound I-125-NM404]", "values": [
      {"measurement": "time at which treatment and control tumor growth curves separate", "setting": "[21]", "value": "4-5 weeks"}
    ]}
  ]
}
